In PubChem BioAssay AID1919002 (Molecular Pharmacology Branch, DTP, NCI, 2023):
“And” between values parts separate entries of the source, which are not always exact repeats. Equal entries are not always repeated.

System: 743489-274-T-PDC complex spheroid growth
Test: Anticancer human tumor 743489-274-T-PDC patient-derived renal cell carcinoma cell line growth inhibition [AhR]
Conditions: for viability, T/C: stronger effect = lower value
How it was run: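 Complex tumor spheroids co-cultured with HUVEC and human MSC stroma; AhR antagonists tested in combination with standard-of-care and investigational agents. Top concentration at or near clinical Cmax (else 10 microM), half-log dilutions; growth expressed as percent test/control.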

[1] = curve of first compound, second compound 0.1 µM
[2] = curve of first compound, second compound 0.316 µM
[3] = curve of first compound, second compound 1 µM
[4] = curve of first compound, second compound 3.16 µM
[5] = curve of first compound, second compound 10 µM
[6] = second compound 0.1 µM, first compound 0.0316 µM
[7] = second compound 0.1 µM, first compound 0.1 µM
[8] = second compound 0.1 µM, first compound 0.316 µM
[9] = second compound 0.1 µM, first compound 1 µM
[10] = second compound 0.1 µM, first compound 3.16 µM
[11] = second compound 0.1 µM, first compound 10 µM
[12] = second compound 0.316 µM, first compound 0.0316 µM
[13] = second compound 0.316 µM, first compound 0.1 µM
[14] = second compound 0.316 µM, first compound 0.316 µM
[15] = second compound 0.316 µM, first compound 1 µM
[16] = second compound 0.316 µM, first compound 3.16 µM
[17] = second compound 0.316 µM, first compound 10 µM
[18] = second compound 1 µM, first compound 0.0316 µM
[19] = second compound 1 µM, first compound 0.1 µM
[20] = second compound 1 µM, first compound 0.316 µM
[21] = second compound 1 µM, first compound 1 µM
[22] = second compound 1 µM, first compound 3.16 µM
[23] = second compound 1 µM, first compound 10 µM
[24] = second compound 3.16 µM, first compound 0.0316 µM
[25] = second compound 3.16 µM, first compound 0.1 µM
[26] = second compound 3.16 µM, first compound 0.316 µM
[27] = second compound 3.16 µM, first compound 1 µM
[28] = second compound 3.16 µM, first compound 3.16 µM
[29] = second compound 3.16 µM, first compound 10 µM
[30] = second compound 10 µM, first compound 0.0316 µM
[31] = second compound 10 µM, first compound 0.1 µM
[32] = second compound 10 µM, first compound 0.316 µM
[33] = second compound 10 µM, first compound 1 µM
[34] = second compound 10 µM, first compound 3.16 µM
[35] = second compound 10 µM, first compound 10 µM
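Note: spheroids exposed to agents for 7 days before readout.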
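Throughout, for viability, T/C: 100% = DMSO vehicle control wells.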

| IC50 [1] [µM] | IC50 [2] [µM] | IC50 [3] [µM] | IC50 [4] [µM] | IC50 [5] [µM] | SMILES | viability, T/C [6] [%] | viability, T/C [7] [%] | viability, T/C [8] [%] | viability, T/C [9] [%] | viability, T/C [12] [%] | viability, T/C [13] [%] | viability, T/C [14] [%] | viability, T/C [15] [%] | viability, T/C [18] [%] | viability, T/C [19] [%] | viability, T/C [20] [%] | viability, T/C [21] [%] | viability, T/C [24] [%] | viability, T/C [25] [%] | viability, T/C [26] [%] | further results |
| --- | --- | --- | --- | --- | --- | --- | --- | --- | --- | --- | --- | --- | --- | --- | --- | --- | --- | --- | --- | --- | --- |
| > 10 | > 10 | > 10 | > 10 | > 10 | O=C(c1cc(Cc2n[nH]c(=O)c3ccccc23)ccc1F)N1CCN(C(=O)C2CC2)CC1 + Cc1ccccc1N=Nc1ccc(NC(=O)c2ccnn2C)c(C)c1 | 104 | 96.2 | 91.8 | 90 | 94.4 | 94.4 | 94.3 | 90.2 | 97 | 95.2 | 111 | 96.1 | 97 | 87.5 | 91.4 | viability, T/C [10]: 108%; viability, T/C [11]: 94.6%; viability, T/C [16]: 91.7%; viability, T/C [17]: 94.2%; viability, T/C [22]: 93.8%; viability, T/C [23]: 83.3%; viability, T/C [27]: 90.6%; viability, T/C [28]: 101%; viability, T/C [29]: 99.3%; viability, T/C [30]: 92.4%; viability, T/C [31]: 110%; viability, T/C [32]: 106%; viability, T/C [33]: 96.8%; viability, T/C [34]: 92.7%; viability, T/C [35]: 85.4% |
| > 1 | > 1 | > 1 | > 1 | > 1 | Nc1ncn(C2CC(O)C(CO)O2)c(=O)n1 (centres undefined) + Cc1ccccc1N=Nc1ccc(NC(=O)c2ccnn2C)c(C)c1 | 88.6 | 92.5 | 103 | 87.1 | 89.8 | 87.2 | 87.8 | 84.7 | 101 | 79.8 | 101 | 87.9 | 83.9 | 74.8 | 88.9 | viability, T/C (second compound 0.1 µM, first compound 0.00316 µM): 86.2%; viability, T/C (second compound 0.1 µM, first compound 0.01 µM): 91.2%; viability, T/C (second compound 0.316 µM, first compound 0.00316 µM): 107%; viability, T/C (second compound 0.316 µM, first compound 0.01 µM): 89.2%; viability, T/C (second compound 1 µM, first compound 0.00316 µM): 89.7%; viability, T/C (second compound 1 µM, first compound 0.01 µM): 99.1%; viability, T/C (second compound 3.16 µM, first compound 0.00316 µM): 94.8%; viability, T/C (second compound 3.16 µM, first compound 0.01 µM): 81.7%; viability, T/C [27]: 82.8%; viability, T/C (second compound 10 µM, first compound 0.00316 µM): 92.7%; viability, T/C (second compound 10 µM, first compound 0.01 µM): 88%; viability, T/C [30]: 90%; viability, T/C [31]: 96.2%; viability, T/C [32]: 80.1%; viability, T/C [33]: 82.8% |
| > 10 | > 10 | > 10 | > 10 | > 10 | CC1COCCN1c1cc(C2(S(C)(=N)=O)CC2)nc(-c2ccnc3[nH]ccc23)n1 (centres undefined) + Cc1ccccc1N=Nc1ccc(NC(=O)c2ccnn2C)c(C)c1 | 92.1 | 101 | 92.2 | 97.3 | 99 | 87.6 | 109 | 88.4 | 104 | 99.4 | 95.8 | 88 | 86.8 | 85.7 | 95.5 | viability, T/C [10]: 98.8%; viability, T/C [11]: 102%; viability, T/C [16]: 86.8%; viability, T/C [17]: 99.1%; viability, T/C [22]: 88.4%; viability, T/C [23]: 81.5%; viability, T/C [27]: 78.6%; viability, T/C [28]: 83.2%; viability, T/C [29]: 80.4%; viability, T/C [30]: 85.4%; viability, T/C [31]: 89.1%; viability, T/C [32]: 87.4%; viability, T/C [33]: 84.8%; viability, T/C [34]: 78.4%; viability, T/C [35]: 75% |
|  |  |  |  |  | O=C(C=Cc1cccc(S(=O)(=O)Nc2ccccc2)c1)NO |  |  |  |  |  |  |  |  |  |  |  |  |  |  |  | viability, T/C (compound 0.0316 µM): 101% and 91.6% and 104%; viability, T/C (compound 0.1 µM): 95.5% and 88.6% and 91.7%; viability, T/C (compound 0.316 µM): 93.9% and 90.1% and 87.8%; viability, T/C (compound 1 µM): 84.5% and 64.3% and 93%; viability, T/C (compound 3.16 µM): 83.8% and 59.3% and 84.6%; viability, T/C (compound 10 µM): 59.8% and 39.6% and 51.1%; IC50 (curve of compound): > 10 µM and 4.74 µM |
|  |  |  |  |  | COc1cc(Nc2ncc3c(n2)-c2ccc(Cl)cc2C(c2c(F)cccc2OC)=NC3)ccc1C(=O)O |  |  |  |  |  |  |  |  |  |  |  |  |  |  |  | viability, T/C (compound 0.0316 µM): 106% and 98.6% and 103%; viability, T/C (compound 0.1 µM): 105% and 95.3% and 116%; viability, T/C (compound 0.316 µM): 92% and 95.6% and 98.8%; viability, T/C (compound 1 µM): 91.3% and 90.4% and 99.3%; viability, T/C (compound 3.16 µM): 90.3% and 92.1% and 91.2%; viability, T/C (compound 10 µM): 102% and 87.5% and 94.5%; IC50 (curve of compound): > 10 µM |
